Assays:
Experiment in all cases: Test on herbicidal activity by foliar application
Type in all cases: in vivo
Settings in all cases: foliar spray, 1 kg/ha, plants at 1-2 leaf stage in pots, evaluated 14 days after spraying
[1] = test system: Matricaria chamomilla
How it was run: (§1)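 Post-emergence test: dissolved wettable-powder formulation applied at 1 kg/ha to foliage of potted plants (1-2 leaves); herbicidal effect graded 14 days on, grades 1-5 covering <30% to ≥90% inhibition.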

[2] = test system: Bidens pilosa
How it was run: as §1

[3] = test system: Veronica hederaefolia
How it was run: as §1

[4] = test system: Setaria viridis
How it was run: as §1

[5] = test system: Sinapis arvensis
How it was run: as §1

[6] = test system: Galium aparine
How it was run: as §1

[7] = test system: Solanum nigrum
How it was run: as §1

[8] = test system: Stellaria media
How it was run: as §1

[9] = test system: Abutilon theophrasti
How it was run: as §1

[10] = test system: Amaranthus retroflexus
How it was run: as §1

[11] = test system: Convolvulus arvensis
How it was run: as §1

Structure (SMILES) | Herbicidal activity, Matricaria chamomilla [1] | Herbicidal activity, Bidens pilosa [2] | Herbicidal activity, Veronica hederaefolia [3] | Herbicidal activity, Setaria viridis [4] | Herbicidal activity, Sinapis arvensis [5] | Herbicidal activity, Galium aparine [6] | Herbicidal activity, Solanum nigrum [7] | Herbicidal activity, Stellaria media [8] | Herbicidal activity, Abutilon theophrasti [9] | Herbicidal activity, Amaranthus retroflexus [10] | Herbicidal activity, Convolvulus arvensis [11]
COc1ccc(C(=O)NS(=O)(=O)c2ccccc2S(=O)(=O)N(C)C)nc1Cl [Compound I-888, N-[[2-(N,N-Dimethylaminosulfonyl)phenyl]-sulfonyl]-6-chloro-5-methoxy-2-pyridinecarboxamide] | 5 (90% or more inhibition) | 5 (90% or more inhibition) | 4 (70% or more-90% inhibition) | 5 (90% or more inhibition) | 5 (90% or more inhibition) | 5 (90% or more inhibition) | 5 (90% or more inhibition) | 5 (90% or more inhibition) | 5 (90% or more inhibition) | 5 (90% or more inhibition) | 5 (90% or more inhibition)
COc1ccc(C(=O)NS(=O)(=O)c2ccccc2S(=O)(=O)N(C)C)nc1OC [Compound I-889, N-[[2-(N,N-Dimethylaminosulfonyl)phenyl]-sulfonyl]-5,6-dimethoxy-2-pyridinecarboxamide] | 5 (90% or more inhibition) | 5 (90% or more inhibition) | 3 (50% or more-70% inhibition) | 4 (70% or more-90% inhibition) | 5 (90% or more inhibition) | 5 (90% or more inhibition) | 4 (70% or more-90% inhibition) | 5 (90% or more inhibition) | 5 (90% or more inhibition) | 5 (90% or more inhibition) | 4 (70% or more-90% inhibition)
COc1ccc(C(=O)NS(=O)(=O)c2ccccc2S(=O)(=O)N(C)C)nc1Br [Compound I-895, N-[[2-(N,N-Dimethylaminosulfonyl)phenyl]-sulfonyl]-6-bromo-5-methoxy-2-pyridinecarboxamide] | 5 (90% or more inhibition) | 5 (90% or more inhibition) | 5 (90% or more inhibition) | 5 (90% or more inhibition) | 5 (90% or more inhibition) | 5 (90% or more inhibition) | 5 (90% or more inhibition) | 5 (90% or more inhibition) | 5 (90% or more inhibition) | 5 (90% or more inhibition) | 5 (90% or more inhibition)
COc1cc(Cl)nc(C(=O)NS(=O)(=O)c2c(F)cccc2F)c1 [Compound I-975, N-[(2,6-Difluorophenyl)sulfonyl]-6-chloro-4-methoxy-2-pyridinecarboxamide] | 4 (70% or more-90% inhibition) | 5 (90% or more inhibition) | 3 (50% or more-70% inhibition) | 3 (50% or more-70% inhibition) | 5 (90% or more inhibition) | 5 (90% or more inhibition) | 5 (90% or more inhibition) | 4 (70% or more-90% inhibition) | 5 (90% or more inhibition) | 3 (50% or more-70% inhibition) | 4 (70% or more-90% inhibition)

Reference: patent US6610853B1, “N-(phenylsulfonyl)picolinamide derivatives, process for producing the same, and herbicide” (Kureha Kagaku Kogyo K.K., priority 2000, dated 2003)
